Test results as given in US20230348564A1, “ANTI-CANCER PROTEINS” (UNICHEM LABORATORIES LTD, priority 2020, published 2023).

Key:
[1] = system: VEGF release in MDA-MB-231 cells; experiment: VEGF secretion in cancer cells (Human VEGF ELISA); assay type: cell-based; settings: 24 h
Procedure: The cell lines were maintained in DMEM+10% […] (heat inactivated) at 37° C. with 5% CO2, and 95% humidity. Cells were counted and plated in 6-well plates for 24 h at a density of 0.5×10^6 cells/well. The cells were incubated overnight under growth conditions as described above so as to allow cell recovery and exponential growth. Cells were treated with each test item at different concentrations for 24h in serum free media. Doxorubicin was used as positive control. Secreted levels of VEGF were determined in supernatants after 24 hours using Human VEGF ELISA kit (R&D systems) as per manufacturer's protocol. Change in VEGF levels corresponding to each treatment was calculated using the following formula: […]

Meningioma (IOMM-Lee) = experiment: cytotoxicity in Brain Tumor Cell lines by MTT assay; settings: 0.1 Mm-100 μM, 72 h
Astrocytoma (U87MG) = experiment: as above; settings: 0.1 Mm-100 μM, 72 h
PDGF-BB = experiment: biomarker levels in IOMM-Lee by multiplex analysis; assay type: cell-based, Human
Description: (§1) Effect of SEQ ID No 2 on the expression of following 7 biomarkers were estimated in Human Meningioma cell line (IOMM-Lee) using multiplex analysis: TNF-alpha, VEGF, VEGFR2, HGF, HGFR/c-MET, PDGF-BB, and Contactin-1. Levels of another marker, Notch-1 were also estimated by ELISA in the same cell line. These 8 biomarkers play very crucial role in the pathogenesis and progression of Brain Tumor. […] Supernatants were collected and the levels of these 8 markers were investigated.

VEGFR2 = experiment: biomarker levels in IOMM-Lee by multiplex analysis; assay type: cell-based, Human
Description: as §1

TNF-α = experiment: biomarker levels in IOMM-Lee by multiplex analysis; assay type: cell-based, Human
Description: as §1

HGFR/c-MET = experiment: biomarker levels in IOMM-Lee by multiplex analysis; assay type: cell-based, Human
Description: as §1

HGF = experiment: biomarker levels in IOMM-Lee by multiplex analysis; assay type: cell-based, Human
Description: as §1

VEGF = experiment: biomarker levels in IOMM-Lee by multiplex analysis; assay type: cell-based, Human
Description: as §1

Contactin-1 = experiment: biomarker levels in IOMM-Lee by multiplex analysis; assay type: cell-based, Human
Description: as §1

SMILES: COc1cccc2c1C(=O)c1c(O)c3c(c(O)c1C2=O)C[C@@](O)(C(=O)CO)C[C@@H]3O[C@H]1C[C@H](N)[C@H](O)[C@H](C)O1 [Doxorubicin, reference compound]
- Average absorbance at 450 nM ([1]; 10 μM): 0.176
- Percentage decrease in VEGF levels ([1]; 10 μM): 89.2%
- VEGF level ([1]; 10 μM): 49.9 pg/mL
- Average absorbance at 450 nM ([1]; 100 μM): 0.145
- Percentage decrease in VEGF levels ([1]; 100 μM): 93.7%
- VEGF level ([1]; 100 μM): 29.0 pg/mL
- % of cytotoxicity (Meningioma (IOMM-Lee)): 46.6%-54.5%
- % of cytotoxicity (Astrocytoma (U87MG)): 46.6%-72.4%
- Percentage inhibition on levels of PDGF-BB (PDGF-BB; 1 μM): 12%
- Percentage inhibition on levels of PDGF-BB (PDGF-BB; 10 μM): 100%
- Percentage inhibition on levels of VEGFR2 (VEGFR2; 1 μM): 38.2%
- Percentage inhibition on levels of VEGFR2 (VEGFR2; 10 μM): 50.1%
- Percentage inhibition on levels of TNF-α (TNF-α; 1 μM): 67.8%
- Percentage inhibition on levels of TNF-α (TNF-α; 10 μM): 42.3%
- Percentage inhibition on levels of HGFR/c-MET (HGFR/c-MET; 1 μM): 45.5%
- Percentage inhibition on levels of HGFR/c-MET (HGFR/c-MET; 10 μM): 55.2%
- Percentage inhibition on levels of HGF (HGF; 1 μM): 45.3%
- Percentage inhibition on levels of HGF (HGF; 10 μM): 84%
- Percentage inhibition on levels of VEGF (VEGF; 1 μM): 53%
- Percentage inhibition on levels of VEGF (VEGF; 10 μM): 93.4%
- Percentage inhibition on levels of Contactin-1 (Contactin-1; 1 μM): 50%
- Percentage inhibition on levels of Contactin-1 (Contactin-1; 10 μM): 23.3%
